Laboratory results: patent publication US7056734B1, “Differentiation of non-insulin producing cells into insulin producing cells by GLP-1 or exendin-4 and uses thereof” (The United States of America as represented by the …, priority 1998, dated 2006)
Like-named read-outs stand apart in the source and are kept apart here.

Legend:
AR42J cells [1] = test: Amylase release from AR42J cells; format: cell-based, rat; conditions: for effect on CCK-induced amylase release: combined with CCK (1 nM), genestein 300 μM
Method: Cell Culture. AR42J cells were maintained in Dulbecco's modified Eagle's medium (Gibco, Grand Island, N.Y.) (DMEM) supplemented with 10% Fetal Calf Serum, 100 IU/ml penicillin, 100 μg/ml streptomycin and 2 mM glutamine. Cells from passage 23–36 were used throughout this study.
Amylase Assay. For amylase secretion, cells were washed free of medium with 2 ml phosphate buffered saline (PBS). Incubation was then carried out in DMEM containing 15 mM HEPES, 0.2% bovine serum albumin (BSA) and 0.01% soybean trypsin inhibitor. The hormones and reagents of interest were added for 50 min at 37° C. The incubation medium was then immediately removed for amylase determination and the cells were again washed in 2 ml ice-cold PBS. […] The released amylase was expressed as the percentage of the total amylase activity of the cells.

AR42J cells [2] = test: Protein tyrosine phosphorylation in AR42J cells; format: cell-based, rat; conditions: 5 min treatment
Method: Tyrosine Phosphorylation Studies. […] Then the medium was removed and fresh KRBB was added, followed by placing the cell on a 37° C. hot plate for 5 min. After addition of various reagents (see FIG. 24) for 5 min the reaction was terminated by submersion of the dishes in liquid nitrogen. The frozen cells were scraped and lysed in RIPA buffer. […] The blots were developed using the ECL chemiluminescence detection system (Amersham).

AR42J cells [3] = test: Immunoreactive insulin release from treated AR42J cells (RIA); format: cell-based, rat; conditions: 200 μM PKI or PD98059 (50 μM)
Method: Measurement of immunoreactive insulin. AR42J cells were cultured as before in 12-well cluster plates. When cells reached 60% confluence, they were treated with GLP-1 for 3 days. At the beginning of the experiments, an aliquot of the medium was taken in order to assay the insulin accumulation in the medium. Then the cells were twice washed with Kreb's Ringer Balanced Buffer (KRBB) and incubated in the same buffer containing 10 mM glucose for another 1 h. The medium was collected and kept at −20° C. until insulin levels were assayed by RIA (See Example 1; Wang et al., Endocrinology, 1995). The cells were washed with PBS and detached with 0.25% typsin and 0.02% EDTA. The cell pellet was collected and lysed with formic acid for protein determination by the Bradford method (Bradford, 1976), using bovine-globulin as standard.

AR42J cells [4] = test: Immunocytochemistry of insulin- and glucagon-positive AR42J cells; format: cell-based, rat; conditions: PD98059 50 μM or PKI 300 μM added concurrently with GLP-1
Method: Cell culture. AR42J cells were maintained in Dulbecco's modified Eagle's medium (DMEM) supplemented with 10% fetal calf serum (FBS), 100 IU/ml penicillin, 100 μg/ml streptomycin and 2 mM glutamine. Cells from passage 23–35 were used throughout this study. Cells were routinely plated at a density of about 10^5 cells/ml in 12-well cluster dishes or on coverslips and incubated in a humidified incubator at 37° C. with 95% air and 5% CO2.
Immunocytochemistry analysis. Cells were cultured on glass coverslips, washed with phosphate buffered saline (PBS) to remove serum, and fixed with 0.5% glutaraldehyde in PBS. Cells were permeabilized with 0.2% Triton X-100 for 5 min and the rest of the procedure was carried out at room temperature in a humidified chamber. Suction was used to remove reagents between each step but drying of specimens was avoided. Sufficient reagent was used to cover each specimen (approximately 1 or 2 drops was usually adequate). The coverslips were incubated in 0.3% H2O2 in PBS for 30 min to quench endogenous peroxidase activity and washed in PBS×3 times, followed by incubation with 2% goat serum in PBS for 30 min to block non-specific binding of IgG. Excess serum was removed by blotting. The specific primary polyclonal antisera (anti-insulin 1:300; anti-glucagon 1:300) were used. Antibody was diluted in PBS containing 1% goat serum. This was applied to the coverslip and incubated at room temperature for 1 h. The coverslips were washed ×3 times in PBS, each time for 5 min, then incubated with biotinylated second antibody for 1 h and washed ×3 times with PBS. Avidin-biotin-peroxidase complex in PBS was applied for 30 min. Immunoperoxidase labeling was performed with a Vectostain ABC kit (Vector Labs, Burlingame, Calif.). After extensive washing in PBS for 4–5 times (each 5 min), the coverslips were incubated in diaminobenzidine tetrahydrochloride (DAB) in PBS, with 0.01% hydrogen peroxide for 3 min. The reaction was stopped by washing the coverslips in PBS and examined under a light microscope. To confirm specific staining, samples incubated with preabsorbed primary antibody were used as negative control, and the insulin producing cell line RIN 1046-38 cells were used as positive control for our experiments. The avidin-biotin-peroxidase (ABC) procedure was performed according to methods known in the art (Hsu et al., 1981).

AR42J cells [5] = test: Amylase content and CCK response of AR42J cells after 72 h treatment; format: cell-based, rat; conditions: dexamethasone 72 h
Method: Amylase Assay. For amylase determination, cells were washed free of medium with 2 ml PBS. Incubation was then carried out in DMEM containing 15 mM HEPES, 0.2% BSA and 0.01% soybean trypsin inhibitor. CCK (1 nM) was added for 50 min at 37° C. The incubation medium was then immediately removed for amylase determination and the cells were again washed in 2 ml ice-cold PBS. Lysate buffer containing (in mM) 130 Tris-HCl, 10 CaCl2, 75 NaCl, and 0.2% Triton X-100 (pH 8.0) was added to the cells and the lysates were then collected for total amylase (Ceska et al., 1969). The released amylase was expressed as the percentage of the total amylase in the cells.

ERK = test: MAP kinase (ERK) activity in AR42J cells; format: cell-based, rat; conditions: PKI 300 μM
Method: MAP Kinase Activity. After treatment, 60 mm dishes of 80% confluent cells were lysed at 4° C. in lysis buffer (in mM): 50 TRIS-HCl, PH 8, 150 NaCl, 5 EDTA, 1% NP-40, 0.25% sodium deoxycholate, 1 NaF, 10 sodium pyrophosphate, 0.1 PMSF, 1 sodium orthovanadate, 20 μg/ml aprotinin, and 10 μg/ml leupeptin. The cell lysate was clarified by centrifugation at 16,000×g at 4° C. for 20 min. The clarified cell lysate was immunoprecipitated overnight at 4° C., rotating with 4.5 μg of ERK1-CT antibody and 40 μl of packed protein G+protein A agarose resin (Oncogene Research Product, Cambridge, Mass.). The immune pellet was assayed for MAPK activity using MBP as the substrate. MBP (18.6 μg) was phosphorylated at 20° C. for 10 min in a final volume of 60 μl containing 20 mM Hepes, PH 7.4, 10 mM MgCl2, 1 mM DTT, 20 uM unlabeled ATP and 40 μCi (3,000 Ci/mmol) [^32P]-ATP. The reaction was terminated by the addition of 25 μl of 3× Laemmli sample buffer and heating at 70° C. for 10 min. MAPK activity was assessed by SDS-PAGE and auto-radiography. The autoradiograms were quantified by densitometry.

AR42J cells [6] = test: Intracellular cAMP in AR42J cells; format: cell-based, rat; conditions: for intracellular cAMP levels: 1 h, GLP-1 0.1 to 100 nM, IBMX 100 nM, CCK 0.1 to 100 nM, exendin-4 0.1 to 10 nM
Method: Measurement of cAMP. Cells were grown in 12-well dishes and treated with hormones and reagents±IBMX as described above. They were then washed 3 times in ice-cold PBS and lysed with 1 ml ice-cold […] perchloric acid. The lysates (950 μl) were transferred to microcentrifuge tubes and the pH adjusted to 7.0 using 5 M K2CO3. After centrifugation for 5 min at 10^4 rpm, the supernatant was vacuum dried, and then recovered in 200 μl Tris/EDTA buffer. After addition of 0.15 mM Na2CO3 (50 μl) and 0.15 mM ZnSO^4 (50 μl), followed by incubation for 15 min on ice, the salt precipitate was removed by centrifugation for 15 min at 3.5×10^3 rpm and 50 μl of supernatant was assayed using a cAMP [^3] assay kit (Amersham Corp., Arlington Heights, Ill.), (Steiner et al., 1972).

AR42J cells [7] = test: Intracellular calcium in single AR42J cells (indo-1); format: cell-based, rat; conditions: for AR42J cells showing [Ca2+]i response: CCK 1 nM
Method: Measurement of intracellular calcium, [Ca^2+]l. AR42J cells were loaded with the fluorescent Ca^2+ probe, indo-1 acetoxymethyl ester (indo-1/AM). […] Both loading with indo-1 and the experiments were carried out at room temperature (22–24° C.). […] The emission field was restricted to a single cell. Indo-1 was excited at 350±5 nm every 5 ms, and the fluorescence emission was split into wavelength bands of 410±5 and 490±5 nm. […] The cell autofluorescence was assessed in a large number of indo-1 non-loaded cells from the same batch. […] Routinely, the cells were exposed to the test solution for 240–300s. Thereafter, the test solution was washed out, while [Ca^2+]l was monitored for additional 120–180s. The test solutions were prepared just prior to the experiment by adding the hormones in standard bathing solution.

rat acinar cells = conditions: CCK alone vs 10^−8 M exendin-4 and CCK together; Malhotra et al. 1992; cited from earlier work
[8] = 50 min, glucagon 10 or 100 nM, GLP-1 10 nM, insulin 100 nM, 8-Br-cAMP 100 nM, vanadate 1 mM

Compound: O=c1c(-c2ccc(O)cc2)coc2cc(O)cc(O)c12 [Genestein]
- effect on CCK-induced amylase release (AR42J cells [1]; vanadate 1 mM): decreased
- effect on protein tyrosine phosphorylation (AR42J cells [2]): decreased tyrosine phosphorylations induced by CCK

Compound: insulin: islet hormone, from Sigma
- effect on amylase release when given alone (AR42J cells [1]; [8]): did not influence amylase release
- effect on CCK-induced amylase release (AR42J cells [1]; vanadate 1 mM): did not influence amylase release
- basal or CCK (1 nM)-induced amylase release after pre-incubation (AR42J cells [1]; pre-incubation 8, 24, 48 or 72 h with GLP-1 (10 nM) and insulin (100 nM)): did not increase
- effect on protein tyrosine phosphorylation (AR42J cells [2]): increased phosphorylation of 97 kDa band

Compound: COc1cccc(-c2cc(=O)c3ccccc3o2)c1N [PD98059, reference compound]
- insulin secretion of GLP-1-treated cells in presence of inhibitor (AR42J cells [3]): barely detected
- effect on GLP-1-induced conversion of AR42J cells (AR42J cells [4]): conversion of the cells did not occur

Compound: C[C@@H]1C[C@H]2[C@@H]3CCC4=CC(=O)C=C[C@]4(C)[C@@]3(F)[C@@H](O)C[C@]2(C)[C@@]1(O)C(=O)CO [dexamethasone, reference compound]
- increase in amylase content vs non-dexamethasone-treated cells (AR42J cells [5]): 6.6 fold
- amylase content of cells (AR42J cells [5]; non-treated cells 1.88 U/l): 12.57 U/l

Compound: CCCCCCCCCCCCCCCCOCC(CO)OC (racemic) [PKI, 1-o-Hexadecyl-2-o-methyl-rac-glycerol, reference compound]
- insulin secretion of GLP-1-treated cells in presence of inhibitor (AR42J cells [3]): barely detected
- MAPK activity with inhibitor alone (ERK): decreased MAPK activity to less than that of control cells
- effect on GLP-1-induced conversion of AR42J cells (AR42J cells [4]): conversion of the cells did not occur

Compound: CC(C)Cn1c(=O)n(C)c(=O)c2[nH]cnc21 [IBMX]
- intracellular cAMP levels (AR42J cells [6]): not altered

Compound: CCK: Cholecytokinin, stimulus of amylase release, from Sigma
- peak [Ca2+]i amplitude, increase over resting indo-1 fluorescence ratio (IFR) (AR42J cells [7]; single cells): 2.5–3.5 fold
- AR42J cells showing [Ca2+]i response (AR42J cells [7]; single cells, glucagon 10 nM): 85%
- concentration of maximum stimulation of amylase release (AR42J cells [1]; 50 min, dexamethasone-induced AR42J cells): 10 nM
- effect on amylase release when given alone (AR42J cells [1]; [8]): potent stimulus of amylase release
- intracellular cAMP levels (AR42J cells [6]): not altered
- total amylase released (rat acinar cells): 12%
- increase in tyrosine phosphorylation levels of 46, 66, 120 and 190 kDa proteins (AR42J cells [2]): ≥ 2 fold

Compound: glucagon: islet hormone, from Bachem
- peak [Ca2+]i transient as percent of resting IFR level (AR42J cells [7]; glucagon 10 nM): 200–250%
- effect on time course of CCK-induced [Ca2+]i transients (AR42J cells [7]; glucagon 10 nM, 8-bromo-cAMP 0.1 μM for 60–300 sec): attenuated rate of rise and a very slow rate of relaxation
- AR42J cells showing [Ca2+]i response (AR42J cells [7]; single cells, glucagon 10 nM): 70%
- effect on amylase release when given alone (AR42J cells [1]; [8]): no effect
- effect on CCK-induced amylase release (AR42J cells [1]; vanadate 1 mM): inhibited, but did not fully abolish
- increase in cAMP levels (AR42J cells [6]; glucagon 10 nM, presence and absence of CCK): 2 fold

Compound: [F-].[Na+] [NaF, sodium fluoride]
- effect on amylase release when given alone (AR42J cells [1]; [8]): did like-wise
- effect on protein tyrosine phosphorylation (AR42J cells [2]): increased

Compound: [O]=[V]([O-])([O-])[O-] [vanadate]
- effect on amylase release when given alone (AR42J cells [1]): increased significantly
- effect on CCK-induced amylase release (AR42J cells [1]; vanadate 1 mM): increased significantly
